Assay results from patent publication US20130216615A1, “Pharmaceutical Compositions Containing Dimethyl Fumarate” (priority 2012, published 2013).
Counter-ions that a name gives are not always drawn.

What was measured:
[1] = human, in vivo
Method: (§1) A randomized, double-blind, placebo-controlled study in healthy adult volunteers was conducted in which a total of 56 subjects were randomized to receive 4 days' treatment with DMF 240 mg BID, DMF 240 mg TID, DMF 360 mg BID or placebo, with aspirin 325 mg or matching aspirin placebo administered 30 minutes before each DMF or DMF placebo dose. An additional 8 patients were assigned to a modified dosing group receiving DMF 120 mg or placebo 6 times daily (3 doses at hourly intervals in the morning and a further 3 doses at hourly intervals in the evening). There were 6 subjects per group, except for the modified dosing regimen, where an additional 2 subjects were assigned to placebo.
(§2) Flushing severity was assessed by 2 validated subject-reported measures, the global Flushing Severity Scale (GFSS) and the Flushing Severity Scale (FSS), which are adapted from the flushing scale described in Norquist J M, et al. Curr Med Res Opin 23:1547-1560 (2007). Both of these measures rate flushing severity on a scale of 0-10, where 0=no flushing, 1-3=mild flushing, 4-6=moderate flushing, 7-9=severe flushing, and 10=extreme flushing. The GFSS is a visual-analogue scale measuring redness, warmth, tingling and itching of the skin experienced over the preceding 24 h. Subjects completed the GFSS immediately before the first dose of study drug (0 h) on days 1 to 4, again at 0 h on day 5 and once more at follow-up on day 11. On the FSS, subjects rated their overall flushing and 4 items describing specific flushing symptoms (redness, warmth, tingling, itching) at the time of administration of the questionnaire. The FSS scale was administered at 16 time points over 12 h (Hours 0, 0.5, 1, 1.5, 2, 2.5, 3, 4, 5, 6, 7, 8, 9, 10, 11, 12) on days 1 to 4 and once on day 5 (24 h after the first day 4 dose) to assess the quality and intensity of subject-reported flushing symptoms in real time. Subjects rated 5 items relating only to the period since they last answered the questionnaire and/or received study drug.

[2] = PK of DMF with or without aspirin in healthy adult volunteers, plasma MMF; assay type: in vivo, human; settings: aspirin 325 mg 30 minutes before each DMF dose
Method: The concentration of MMF was determined by high pressure liquid chromatography with tandem mass spectrometry, using […] as the internal standard. Further pharmacokinetic parameters were derived by non-compartmental analysis

[3] = Laser Doppler perfusion of facial skin during flushing; assay type: in vivo, human; settings: aspirin pretreatment before DMF
Method: Laser Doppler perfusion was used as an exploratory quantitative measure of facial skin perfusion during flushing. This technique uses non-invasive imaging of superficial tissue blood perfusion, recorded as Blood Perfusion Units on a relative units scale. Laser Doppler perfusion was measured at the same 16 timepoints as the FSS.

[4] = Subject-reported flushing severity (GFSS, FSS); settings: 325 mg non-enteric coated aspirin 30 minutes prior to DMF dosing, healthy volunteer study
Method: as §1, §2

flushing severity on the FSS [1]	mean GFSS score ([1]; 2 day)	effect of aspirin pretreatment on MMF concentration-time profiles [2]	magnitude of Doppler perfusion response [3]	Structure (SMILES)	occurrence and severity of flushing [4]
mild to moderate	1.5-3.5	–	–	COC(=O)/C=C/C(=O)OC [DMF, dimethyl fumarate]	–
–	–	no apparent effect	decreased	CC(=O)Oc1ccccc1C(=O)O [aspirin]	reduce the occurrence and severity of flushing
